Key:
[1] = test system: SSc; details: references (25), (57); cited from earlier work
[2] = test system: human skin; test: ex vivo human skin organ culture: dermal and collagen bundle thickness; details: explanted human skin, 7 days; for collagen bundle thickness, ratio compared with vehicle / dermal thickness, ratio compared with vehicle: p<0.05, 3 experiments
Procedure: Dermal and collagen bundle thickness were measured in skin sections stained with hematoxylin and eosin.
Dermal thickness was defined as the distance from the granular layer to the junction between the dermis and subcutaneous fat. Images were taken on a Nikon Eclipse 800 microscope (Nikon Instruments, Inc., Huntley, Ill.) using identical camera settings and Image was used to measure thickness. Thickness was measured in 5 random fields in each sample.
(§1) To further examine the effect of estradiol in skin tissues, dermal and collagen bundle thickness in dermis were assessed using an ex vivo organ culture system. Ex-planted skin tissues on 35-mm well plates were treated with estradiol, estrogen receptor alpha or beta agonists (PPT, genistein, respectively) or vehicles (ethanol for estraditol, PPT, DMSO for genistein, respectively) for 7 days, and skin sections were stained with hematoxylin and eosin. […] We also assessed the extent of deposition of fibronectin using immunohistochemistry. […] Thus, estradiol is an important factor for the induction of skin fibrosis, and the effect of estradiol is mediated by estrogen receptor alpha.

[3] = test system: fibronectin (FN); test: FN mRNA (RT-PCR) and protein (western blot) expression in primary skin fibroblasts; assay type: cell-based, human; details: for FN protein levels in the ECM: primary fibroblasts treated 48 hrs, PPT 100 nM, genistein 100 nM, western blot; for E2-mediated increase of FN protein: skin fibroblasts pre-treated with inhibitor 1 hr prior to E2, western blot 48 hrs post-treatment, cellular lysates
Procedure: Skin-punch biopsies (6 mm) were obtained with informed consent from the clinically affected and unaffected skin of 6 patients with SSc and 5 healthy twins. All SSc patients had diffuse skin involvement and met the American College of Rheumatology criteria for the diagnosis of SSc (1). Biopsies were performed on the leading edge of dermal thickening and clinically normal skin. The skin samples were minced, placed in 60-mm tissue culture dishes and cultured at 37° C. in a humidified atmosphere in Dulbecco's modified Eagle's medium (DMEM) (Cellgro, Herndon, Va.) supplemented with 10% fetal bovine serum (FBS; Sigma-Aldrich, St. Louis, Mo.), 100 IU/ml penicillin, and 100 μg/ml streptomycin (Invitrogen, Carlsbad, Calif.). Skin fibroblasts (2×10^5 cells per well) were seeded in 35 mm cell culture dishes in DMEM/10% FBS. The following day, the medium was replaced with phenol-red free DMEM (Cellgro) without serum for 24 hours to deprive the cells of estrogen. […] Sigma-Aldrich) for 24 hours (for RNA extraction) or 48 hours (for protein extraction). TGF-β (10 ng/ml; R&D systems, Minneapolis, Minn.) was used as a positive control. […] Cell Signaling Technology, Beverly, Mass.) were added where indicated. To determine the role of ERα and β on FN individually, cells we cultured with propyl-pyrazole-triol (PPT), an ERα specific ligand (100 nM; Tocris), and genistein, an ERβ specific ligand (100 nM; […] Extracellular matrix (ECM) was extracted as we have previously described. (35) Briefly, cells were rinsed with PBS and incubated with 8M Urea in PBS for 20 mins. Cells were aspirated and the ECM was rinsed three times with PBS. ECM was scraped in 100 μl sample buffer (20 mM dithiothreitol, 6% SDS, 0.25 M Tris, pH 6.8, 10% glycerol, 10 mM NaF and bromophenyl blue) and analyzed by western blot. Skin fibroblasts in early passage (passages 3-4) were harvested and RNA was extracted using TRIzol (Invitrogen). mRNA was reverse transcribed using Superscript II (Invitrogen) following the manufacturer's recommendations. The cDNA generated was used as a template for amplification by PCR with primers specific for ERα [NT] ID NO:1) and […] NO:2), ERβ […] NO:3) and [NT] ID NO:4), Fibronectin, [NT] ID NO:5) and 5-[…] ID NO:6) and β-actin, […] NO:7) and [NT] ID NO:8). PCR amplification was performed in a 50 μl reaction containing 10 units of the reverse transcription reaction, Taq DNA polymerase (Invitrogen), 10×PCR buffer (750 mM Tris-HCl, pH8.8, 200 mM (NH4)2SO4 and 0.1% Tween 20), 1.5 mM MgSO4, 1 mM of each deoxynucleotide triphosphate in a Peltier Thermal Cycler-200 (MJ Research, Waltham, Mass.). Conditions were an initial denaturation at 95° C. for 4 min, followed by 35 cycles of 94° C. for 45 sec, 55° C. for 30 sec, and 68° C. for 2 min. Final extension was at 68° C. for 5 min. 20 μl of each reaction was electrophoresed on a 1% agarose gel in 1×TAE (Tris/acetate/EDTA) buffer and products were visualized following staining with ethidium bromide. Molecular weight of each PCR product: ERα 1062 bp, ERβ 934 bp, FN 513 bp and β-actin 494 bp. Cells were grown to confluency in 35 mm culture dishes. Cells were rinsed with 1×PBS and scraped in sample buffer (20 mM dithiothreitol, 6% SDS, 0.25 M Tris, pH 6.8, 10% glycerol, 10 mM NaF and bromophenyl blue). Samples were separated by electrophoresis on 8% SDS-polacrylamide gels (National Diagnostic, Atlanta, Ga.) and transferred to nitrocellulose membranes. […] Immunoreactive proteins were detected by chemiluminescence (PerkinElmer Life Sciences, Boston, Mass.), followed by autoradiography.

[4] = test system: fibronectin; test: ex vivo human skin organ culture: fibronectin immunohistochemistry; details: explanted human skin, 7 days; anti-fibronectin antibody, AEC
Procedure: 6 μm sections of paraffin-embedded skin tissues were de-paraffinized, endogenous peroxidase was quenched using 10% H2O2, and endogenous biotin was blocked using the biotin blocking kit (Dakocytomation, Carpinteria, Calif.). Sections were blocked with 5% serum and incubated with anti-fibronectin antibody followed by secondary antibody. Bound secondary antibody was detected using the AEC Red kit. A light hematoxylin counterstain was used to identify nuclei. Images were taken on a Nikon Eclipse 800 microscope.
as §1

[5] = test system: ERα; test: ERα protein in cellular lysates of skin fibroblasts (western blot); assay type: cell-based, human; details: for E2-induced increase of ERα: skin fibroblasts pre-treated with inhibitor 1 hr prior to E2, 48 hrs
Procedure: Skin fibroblasts (2×10^5 cells per well) were seeded in 35 mm cell culture dishes in DMEM/10% FBS. The following day, the medium was replaced with phenol-red free DMEM (Cellgro) without serum for 24 hours to deprive the cells of estrogen. Fresh phenol-red free DMEM plus 10% charcoal stripped fetal bovine serum (Hyclone, Logan, Utah) was added with one of the following: ethanol as vehicle control (0.1%) or E2 (10 nM; Sigma-Aldrich) for 24 hours (for RNA extraction) or 48 hours (for protein extraction).
Cells were grown to confluency in 35 mm culture dishes. Cells were rinsed with 1×PBS and scraped in sample buffer (20 mM dithiothreitol, 6% SDS, 0.25 M Tris, pH 6.8, 10% glycerol, 10 mM NaF and bromophenyl blue). Samples were separated by electrophoresis on 8% SDS-polacrylamide gels (National Diagnostic, Atlanta, Ga.) and transferred to nitrocellulose membranes. Membranes were blocked with 5% non-fat milk in 1×TBS-Tween20 (0.2 M Tris, 0.14 M NaCl, 0.1% Tween 20), followed by incubation with mouse monoclonal anti-human EDA-fibronectin antibody, rabbit polyclonal anti-human fibronectin antibody, rabbit polyclonal anti-ERα antibody, rabbit polyclonal anti-ERβ antibody (Santa Cruz Biotechnology, Santa Cruz, Calif.), mouse monoclonal anti-human vitronectin, mouse monoclonal anti-β-actin (Sigma-Aldrich), or mouse monoclonal anti-GAPDH (Ambion, Austin, Tex.) in 1×TBS-Tween20 followed by horseradish peroxide-conjugated donkey anti-rabbit IgG (Amersham, Piscataway, N.J.) or donkey anti-mouse IgG (Amersham). Immunoreactive proteins were detected by chemiluminescence (PerkinElmer Life Sciences, Boston, Mass.), followed by autoradiography.
We also examined the effect of the chemical inhibitors on ERα and ERβ.

[6] = serum half life; cited from earlier work
[7] = test system: MCF7; details: reference (56); read-out: 1050 in the MCF7 proliferation assay; cited from earlier work

## CC(=O)Oc1ccc(C(=C2CCCCC2)c2ccc(OC(C)=O)cc2)cc1 [Cyclofenil]
[1]
  SSc symptoms / treatment outcome in SSc patients: disappointing results

## C[C@]12CC[C@@H]3c4ccc(O)cc4CC[C@H]3[C@@H]1CC[C@@H]2O [E2, 17-β-Estradiol]
[2]
  collagen bundle thickness, ratio compared with vehicle: 2.62 ± 0.18 arbitrary unit
  dermal thickness, ratio compared with vehicle: 1.61±0.12 arbitrary unit
[3]; healthy twin and SSc fibroblasts, E2 10 nM, 24 hrs (mRNA), 48 hrs (protein)
  FN mRNA and protein levels: increased
[3]; E2 10 nM
  FN protein levels in the ECM: increased
[4]
  fibronectin expression ex vivo (immunohistochemistry): induce fibronectin expression
[5]; skin fibroblasts stimulated with E2 48 hrs
  ERα level: increased

## C[C@]12CC[C@@H]3c4ccc(O)cc4C[C@@H](CCCCCCCCC[S+]([O-])CCCC(F)(F)C(F)(F)F)[C@H]3[C@@H]1CC[C@@H]2O (stereo partly drawn) [ICI 182,780, fulvestrant]
[2]; E2+ICI
  effect of estradiol on dermal and collagen bundle thickness in presence of antagonist: blocked the effect of estradiol
[3]; TGF-β 10 ng/ml, ICI 182,780 100 nM
  TGF-β-induced FN levels: did not affect
[3]; normal skin fibroblasts, E2 10 nM 48 hrs, ICI 182,780 100 nM, ECM and supernatants
  effect of E2 on FN mRNA and protein expression in presence of antagonist: blocked the effect of E2
[6]
  half life: approximately forty
[7]
  IC50: ~14 nM

## N#CC(=C(/N)Sc1ccccc1N)/C(C#N)=C(\N)Sc1ccccc1N [MEK inhibitor, U0126]
[3]
  E2-mediated increase of FN protein: more modest effect
[5]
  E2-induced increase of ERα: blocked

## CCCc1c(-c2ccc(O)cc2)nn(-c2ccc(O)cc2)c1-c1ccc(O)cc1 [PPT, propyl-pyrazole-triol]
[2]
  collagen bundle thickness, ratio compared with vehicle: 1.84 ± 0.15 arbitrary unit
  dermal thickness, ratio compared with vehicle: 1.54±0.05 arbitrary unit

## CC/C(=C(\c1ccccc1)c1ccc(OCCN(C)C)cc1)c1ccccc1 [Tamoxifen, tamoxifen]
[1]
  SSc symptoms / treatment outcome in SSc patients: did not improve SSc symptoms

## O=c1c(-c2ccc(O)cc2)coc2cc(O)cc(O)c12 [genistein]
[2]; vs DMSO vehicle
  thickening of dermis and collagen bundles: did not induce thickening
[3]; E2 10 nM
  FN protein levels in the ECM: modestly increased

## Oc1ccc(-c2nc(-c3ccncc3)c(-c3ccc(F)cc3)[nH]2)cc1 [p38 MAPK inhibitor, SB202190]
[3]
  E2-mediated increase of FN protein: attenuated
[5]
  E2-induced increase of ERα: blocked

Source: patent US9655869B2, “Estrogen antagonists as treatments for sclerosing disorders” (University of Pittsburgh—Of The Commonwealth System Of …, priority 2009, dated 2017)
